Assay [1] concerns ADP-induced platelet aggregation in canine platelet rich plasma. Put plainly: Inhibition of ADP-Induced ex-vivo Platelet Aggregation after oral administration. Type of assay: in vivo, mongrel dogs. The settings on record: Canis lupus familiaris, Platelet, dog. As for the experimental part:
Inhibition of ADP-Induced ex-vivo Platelet Aggregation
Control blood samples are obtained 5-10 minutes prior to administration of the test compound in mongrel dogs weighing from 10 to 20 kg. The compound is administered intragasticly, via aqueous gavage, or orally, via gelatin capsule. Blood samples (5 ml) are then obtained at 30 minute intervals for 3 hours, and at 6, 12, and 24 hours after dosing. Each blood sample is obtained by venipuncture of the cephalic vein and is collected directly into a plastic syringe containing one part 3.8% trisodium citrate to nine parts blood.
Ex vivo Canine Platelet Aggregation
The blood samples are centrifuged at 1000 rpm for 10 minutes to obtain platelet rich plasma (PRP). After removal of the PRP, the sample is centrifuged for an additional 10 minutes at 2000 rpm to obtain platelet poor plasma (PPP). Platelet count in the PRP is determined by using a Coulter Counter (Coulter Electronics, Hialeah, Fla.). If the concentration of platelets in the PRP is greater than 300,000 platelets/μl, then the PRP is diluted with PPP to adjust the platelet count to 300,000 platelets/μl. Aliquots of PRP (250 μl) are then placed in siliconized glass cuvettes (7.25×55 mm, Bio/Data Corp, Horsham, Pa.). Epinephrine (final concentration of 1 μM) is then added to the PRP, which is incubated for one minute at 37° C. A stimulator of platelet aggregation, ADP at a final concentration of 10 μM, is then added to the PRP. Platelet aggregation is monitored spectrophotometrically utilizing a light transmission aggregometer (Bio/Data Platelet Aggregation Profiler, Model PAP-4, Bio/Data Corp, Horsham, Pa.). For compound to be tested, the rate of change (slope) of light transmittance and the maximum light transmittance (maximum aggregation) is recorded in duplicate. Platelet aggregation data are reported as the percent decrease (mean±SEM) in slope or maximum aggregation as compared to data obtained from control PRP, which is prepared from blood samples obtained prior to administration of the test compound.

In assay [2] the test system is fixed activated platelets. Put plainly: Platelet Aggregation Assay (fixed-activated platelets, fibrinogen-mediated aggregation). It counts as cell-based. Conditions: aggregation initiated by human fibrinogen 250 μg/ml, read-out: Inhibition of Fixed Platelet Aggregation (IC50 μM). How it is done:
Preparation of Fixed-Activated Platelets
Platelets are isolated from human platelet concentrates using the gel-filtration technique as described by Marguerie, G. A., et al., J. Biol. Chem. 254, 5357-5363 (1979) and Ruggeri, Z. M., et al., J. Clin. Invest. 72, 1-12 (1983). The platelets are suspended at a concentration of 2×10^8 cells/ml in a modified calcium-free Tyrode's buffer containing 127 mM sodium chloride, 2 mM magnesium chloride, 0.42 mM Na2HPO4, 11.9 mM NaHCO3, 2.9 mM KCl, 5.5 mM glucose, 10 mM HEPES, at a pH of 7.35 and 0.35% human serum albumin (HSA). These washed platelets are activated by addition of human a-thrombin at a final concentration of 2 units/ml, followed by thrombin inhibitor I-2581 at a final concentration of 40 μM. To the activated platelets is added paraformaldehyde to a final concentration of 0.50% and this incubated at room temperature for 30 minutes. The fixed activated platelets are then collected by centrifugation at 650×g for 15 minutes. The platelet pellets are washed four times with the above Tyrode's-0.35% HSA buffer and resuspended to 2×10^8 cells/ml in the same buffer.
Platelet Aggregation Assay
The fixed activated platelets are incubated with a selected dose of the compound to be tested for platelet aggregation inhibition for one minute and aggregation initiated by addition of human fibrinogen to a final concentration of 250 μg/ml. A platelet aggregation profiler Model PAP-4 is used to record the platelet aggregation. The extent of inhibition of aggregation is expressed as the percentage of the rate of aggregation observed in the absence of inhibitor.

[3] abbreviates: 1 h after dosing, read-out: % Inhibition of ex-vivo Platelet Aggregation After Oral Administration, 1 h.
Where [4] appears, read: 3 h after dosing, read-out: % Inhibition of ex-vivo Platelet Aggregation After Oral Administration, 3 h.
Where [5] appears, read: 6 h after dosing, read-out: % Inhibition of ex-vivo Platelet Aggregation After Oral Administration, 6 h.

The term IC50 denotes the concentration that inhibits the measured activity by half.

Where two headings read alike, the source gives them in different places.

As for `CCN(CC(=O)NC(CC(=O)O)C(=O)NC(C(=O)O)C1CCCCC1)C(=O)CCCC1CCNCC1` [Example 13, N-[N-[N-(4-(piperidin-4-yl)butanoyl)-N-ethylglycyl]aspartyl]-L-a-cyclohexyl glycine], the values for the inhibition at 5 mg/kg in assay [1] (setting [3]), in assay [1] (setting [4]) and in assay [1] (setting [5]) were 100%, 100% and 25%, respectively. As for `CCN(CC(=O)NC(CC(=O)O)C(=O)NC(C(=O)O)C(C)C)C(=O)CCC1CCNCC1` (stereo not drawn) [Example 9, N-[N-[N-(3-(piperidin-4-yl)propanoyol)-N-ethylglycyl]aspartyl]valine], in assay [2] (Homo sapiens, Platelet), the IC50 was 0.77 µM. As for `CCOC(=O)C(CCC1CCCCC1)NC(=O)C(CC(=O)O)NC(=O)CN(CC)C(=O)CCCC1CCNCC1` (stereo not drawn) [Example 34, N-[N-[N-(4-(piperidin-4-yl)butanoyl)-N-ethylglycyl]aspartyl]-b-cyclohexylmethylalanine ethyl ester], the IC50 in assay [2] (Homo sapiens, Platelet) is 0.074 µM. The same measure, in the same setting: the result for `CCN(CC(=O)NC(CC(=O)O)C(=O)OCCCC12CC3CC(CC(C3)C1)C2)C(=O)CCCC1CCNCC1` (stereo not drawn) [Example 18, 3-Adamant-1-ylpropyl-N-[N-(4-(piperidin-4-yl)butanoyl)-N-ethylglycyl]aspartate] reads 0.104 µM; that for `CCN(CC(=O)NC(CC(=O)O)C(=O)NC(Cc1cccc2c1CCCC2)C(=O)O)C(=O)CCCC1CCNCC1` (stereo not drawn) [Example 27, N-[N-[N-(4-(piperidin-4-yl)butanoyl)-N-ethylglycyl]aspartyl]-b-(1,2,3,4)-tetrahydronaphth-5-ylalanine], 0.119 µM. For `CCN(CC(=O)N[C@@H](CC(=O)O)C(=O)N[C@H](C(=O)O)C(C)C)C(=O)CCCC1CCNCC1` [Example 2, N-[N-[N-(4-(piperidin-4-yl)butanoyl)-N-ethylglycyl]aspartyl]valine], in assay [2] (Homo sapiens, Platelet), the half-inhibitory concentration (IC50) came to 0.027 µM. The inhibition at 10 mg/kg in assay [1] (setting [3]) was 90%; in assay [1] (setting [4]), 60%; in assay [1] (setting [5]) it was less than 20%. Consider `CCN(CC(=O)N[C@@H](CC(=O)O)C(=O)NCCC1CCCCC1)C(=O)CCCC1CCNCC1` [Example 15, 2-cyclohexyl-N-[N-[N-(4-(piperidin-4-yl)butanoyl)-N-ethylglycyl]aspartyl]-ethylamine], for which the half-inhibitory concentration (IC50) in assay [2] (Homo sapiens, Platelet) worked out at 0.072 µM. The inhibition at 5 mg/kg in assay [1] (setting [3]) was determined as 35%; in assay [1] (setting [4]), 18%. Consider `CCN(CC(=O)NC(CC(=O)O)C(=O)NC(CC1CCCC1)C(=O)O)C(=O)CCCC1CCNCC1` (stereo not drawn) [Example 33, N-[N-[N-(4-(piperidin-4-yl)butanoyl)-N-ethylglycyl]aspartyl]-b-cyclopentylalanine], for which the IC50 in assay [2] (Homo sapiens, Platelet) amounted to 0.047 µM. The same measure, in the same setting: the result for `CCN(CC(=O)NC(CC(=O)O)C(=O)NC(CCC1CCCCC1)C(N)=O)C(=O)CCCC1CCNCC1` (stereo not drawn) [Example 25, N-[N-[N-(4-(piperidin-4-yl)butanoyl)-N-ethylglycyl]aspartyl]-b-cyclohexylmethylalanine amide] reads 0.046 µM; that for `CCN(CC(=O)NC(CC(=O)O)C(=O)NC(CC1CCCCCC1)C(=O)O)C(=O)CCCC1CCNCC1` (stereo not drawn) [Example 29, N-[N-[N-(4-(piperidin-4-yl)butanoyl)-N-ethylglycyl]aspartyl]-b-cycloheptylalanine], 0.032 µM; that for `CCN(CC(=O)NC(CC(=O)O)C(=O)NC(CC12CC3CC(CC(C3)C1)C2)C(=O)O)C(=O)CCCC1CCNCC1` (stereo not drawn) [Example 26, N-[N-[N-(4-(piperidin-4-yl)butanoyl)-N-ethylglycyl]aspartyl]-b-adamant-1-ylalanine], 0.029 µM. The same measure, in the same setting: the result for `CCN(CC(=O)NC(CC(=O)O)C(=O)NC(CC1CCC2CCCCC2C1)C(=O)O)C(=O)CCCC1CCNCC1` [Example 17, N-[N-[N-(4-(piperidin-4-yl)butanoyl)-N-ethylglycyl]aspartyl]-L-b-cis-decahydronaphth-2-ylalanine] reads 0.096 µM. For the compound `CCN(CC(=O)NC(CC(=O)O)C(=O)N[C@H](CC1CCCCC1)C(=O)O)C(=O)CCCC1CCNCC1` (stereo partly drawn) [Example 20, N-[N-[N-(4-(piperidin-4-yl)butanoyl)-N-ethylglycyl]aspartyl]-b-cyclohexyl-D-alanine], the IC50 in assay [2] (Homo sapiens, Platelet) came out at 1.37 µM. Turning to `CCN(CC(=O)NC(CC(=O)O)C(=O)NC(CO)CC1CCCCC1)C(=O)CCCC1CCNCC1` (stereo not drawn) [Example 24, N-[N-[N-(4-(piperidin-4-yl)butanoyl)-N-ethylglycyl]aspartyl]-a-cyclohexylmethylethanolamine], the IC50 in assay [2] (Homo sapiens, Platelet) worked out at 0.129 µM. `CCN(CC(=O)NC(CC(=O)O)C(=O)NC(CCC1CCCCCCC1)C(=O)O)C(=O)CCCC1CCNCC1` (stereo not drawn) [Example 32, N-[N-[N-(4-(piperidin-4-yl)butanoyl)-N-ethylglycyl]aspartyl]-b-cyclooctylmethylalanine]: the IC50 in assay [2] (Homo sapiens, Platelet) is 0.052 µM. Turning to `CCN(CC(=O)NC(CC(=O)O)C(=O)NC(Cc1ccc2ccccc2c1)C(=O)O)C(=O)CCCC1CCNCC1` [Example 8, N-[N-[N-(4(piperidin-4-yl)butanoyl)-N-ethylglycyl]aspartyl]-L-b-naphth-2-yl alanine], the inhibition at 5 mg/kg was 30% in assay [1] (setting [3]) and less than 20% in assay [1] (setting [4]).

As for `CCN(CC(=O)NC(CC(=O)O)C(=O)NC(CC1CCCC2CCCCC21)C(=O)O)C(=O)CCCC1CCNCC1` (stereo not drawn) [Example 21, N-[N-[N-(4-(piperidin-4-yl)butanoyl)-N-ethylglycyl]aspartyl]-b-decahydronaphth-1-ylalanine], the IC50 in assay [2] (fixed activated human platelets) is 0.055 µM. For `CCN(CC(=O)NC(CC(=O)O)C(=O)NC(CC1CCCCCCC1)C(N)=O)C(=O)CCCC1CCNCC1` (stereo not drawn) [Example 30, N-[N-[N-(4-(piperidin-4-yl)butanoyl)-N-ethylglycyl]aspartyl]-b-cyclooctylalanine amide], the IC50 in assay [2] (Homo sapiens, Platelet) was 0.07 µM. The same measure, in the same setting: the result for `CCN(CC(=O)NC(CC(=O)O)C(=O)NC(CC1CCC(C2CCCCC2)CC1)C(=O)O)C(=O)CCCC1CCNCC1` (stereo not drawn) [Example 28, N-[N-[N-(4-(piperidin-4-yl)butanoyl)-N-ethylglycyl]aspartyl]-b-(4-cyclohexyl)cyclohexylalanine] reads 0.048 µM; that for `CCN(CC(=O)NC(CC(=O)O)C(=O)NC(CCCC1CCCCC1)C(=O)O)C(=O)CCCC1CCNCC1` (stereo not drawn) [Example 31, N-[N-[N-(4-(piperidin-4-yl)butanoyl)-N-ethylglycyl]aspartyl]-a-cyclohexylpropylglycine], 0.053 µM. As for `CCNC(=O)C(CC1CCCCC1)NC(=O)C(CC(=O)O)NC(=O)CN(CC)C(=O)CCCC1CCNCC1` (stereo not drawn) [Example 22, N-[N-[N-(4-(piperidin-4-yl)butanoyl)-N-ethylglycyl]aspartyl]-b-cyclohexylalanine ethyl amide], the IC50 in assay [2] (Homo sapiens, Platelet) was 0.09 µM.

On to `CCN(CC(=O)NC(CC(=O)O)C(=O)NC(CC1CCCCCCC1)C(=O)O)C(=O)CCCC1CCNCC1` (stereo not drawn) [Example 23, N-[N-[N-(4-(piperidin-4-yl)butanoyl)-N-ethylglycyl]aspartyl]-b-cyclooctylalanine], for which the IC50 in assay [2] (Homo sapiens, Platelet) stood at 0.078 µM.

For the origin of these results see patent US6797700B2, “Antithrombotic azacycloalkylalkanoyl peptides and pseudopeptides” (Aventis Pharmaceuticals, Inc., priority 1993, dated 2004).
